Calls of active or inactive are those of the source. How the calls were made is not given here.

For this assay, the system named is cell-based VP16 transactivation luciferase luminescence. As to the kind of experiment: VP16 transactivation luciferase reporter inhibitors, dose response, counter-screen for NR2E3 agonist project, cell-based, luminescence (AID 624395).
With `COc1ccc(CNC(=O)c2cccc3c(-c4ccc(F)c(F)c4)coc23)cc1OC`, the IC50 is 4.54 µM.

Turning to `CCCOc1ccc(CSc2nc3ccccc3[nH]2)cc1`, the IC50 is 13.3 µM (inactive).

Consider `O=C(NC(=O)N1CCN(c2cccc(Cl)c2)CC1)c1ccc(Cl)cc1`, for which the concentration for half-maximal inhibition (IC50) was 4.17 µM.

As to `Cc1ccc(Cc2cnc(N3C(=N)SC(C)C3=O)s2)cc1` (stereo unspecified), the IC50 is 4.37 µM.

Take `COc1cccc(NC(=O)CSc2nc3ncc(Br)cc3[nH]2)c1`: the IC50 is > 39.8 µM (inactive).

Regarding `Cc1ccc(S(=O)(=O)N2[C@@H](c3ccc(Br)cc3)C(C(=O)O)=CC[C@H]2c2ccc(Cl)c(Cl)c2)cc1`, the IC50 was 7.28 µM.

As for `Cc1cc(C(=O)COc2cccnc2[N+](=O)[O-])c(C)n1-c1ccccc1`, the IC50 was 0.3 µM.

For the compound `O=C(Nc1cccc(NC(=O)c2c(F)cccc2F)n1)c1c(F)cccc1F`, the IC50 is > 39.8 µM (inactive).

Consider `Cc1nc2ccc(S(=O)(=O)Nc3cccc(-c4nc5cccnc5s4)c3)cc2s1`, for which the IC50 was 7.12 µM.

As to `O=c1c(Br)ccc(Br)cc1Br`, the IC50 is 4.8 µM.

With `Nc1nc(-c2ccccn2)nc(N)c1Cc1ccc(Cl)cc1Cl`, the half-maximal inhibitory concentration (IC50) was 4.59 µM.

As for `O=C1C(=O)c2cccnc2-c2ncccc21`, the IC50 is 13.1 µM (inactive).

In the case of `Cc1ccnc(NC(=O)CCCOc2cc(=O)n(C)c3ccccc23)c1`, the concentration for half-maximal inhibition (IC50) was 8.23 µM.

Turning to `COc1cc2c(O)c3c(c(-c4ccc5c(c4)OCO5)c2cc1OC)C(=O)OC3`, the IC50 was 2.3 µM.

Consider `CCOC(=O)[C@]12Cc3cc(C)ccc3[C@H]1N(C1CCCCC1)C(=O)c1cc(OC)ccc12`, for which the IC50 was 4.32 µM.

With `Cc1cccc(C)c1OCc1cc(C(=O)N2CCC(c3ccncc3)CC2)no1`, the concentration for half-maximal inhibition (IC50) is 2.08 µM.

`Brc1ccc(N/N=C(/N=Nc2nn[nH]n2)c2ccccc2)cc1`: the IC50 is 12.8 µM (inactive).

As to `CC(C)(C)Nc1nc(-c2ccccn2)nc2ccccc12`, the IC50 was 4.08 µM.

Take `O=C(Nc1cccc(OC(F)(F)F)c1)C1Cc2c(-c3ccc4c(c3)OCO4)ccnc2O1` (stereo unspecified): the IC50 was 14.4 µM (inactive).

Turning to `O=[N+]([O-])c1cc(C(F)(F)F)cc([N+](=O)[O-])c1NCCNC(=S)Nc1ccc(Cl)c(Cl)c1`, the IC50 is 11.5 µM (inactive).

Turning to `COc1ccc(C)cc1NC(=O)c1nnn(Cc2cccc(C(F)(F)F)c2)c1N`, the IC50 was > 39.8 µM (inactive).

Regarding `Cc1ccccc1Cn1nnc(C(=O)Nc2cccc(C)c2C)c1N`, the IC50 was 18 µM (inactive).

On to `COc1ccc(OC)c(NC(=O)CSc2nnnn2-c2ccc3c(c2)OCO3)c1`, for which the IC50 was 3.36 µM.

For the compound `Cc1cccc(OCCCC(=O)Nc2nc3ccccc3[nH]2)c1`, the IC50 was > 39.8 µM (inactive).

Consider `O=C(C(=Cc1ccccc1)CN1CCCCC1)c1ccccc1`, for which the IC50 is 4.54 µM.

As for `CC(C)N1CCc2c(sc(NC(=O)c3ccc([N+](=O)[O-])o3)c2C(N)=O)C1`, the IC50 is 3.05 µM.

`Cc1ccc(-c2nc(NC(=O)CSc3nnnn3-c3ccccc3)ns2)cc1`: the IC50 was 12.1 µM (inactive).

Regarding `CCNc1nc2c(c(=O)n(C)c(=O)n2C)n1Cc1ccc(Cl)cc1`, the IC50 was 6.02 µM.

As to `Cc1cnc(NC(=O)C2CC(=O)N(c3ccc4c(c3)OCCO4)C2)s1` (stereo unspecified), the IC50 is > 39.8 µM (inactive).

Take `CCC1(OC(=O)CN(C)C)C(=O)OCc2c1cc1n(c2=O)Cc2cc3c(N)cccc3nc2-1` (stereo unspecified): the concentration for half-maximal inhibition (IC50) was 2.99 µM.

For the compound `CSC(=Nc1ccccc1)N=C(SCc1ccccc1)N(C)C`, the half-inhibitory concentration (IC50) is 4.06 µM.

Consider `O=c1cc(N2CCN(c3cccc(Cl)c3)CC2)[nH]c(=O)n1C1CCCCC1`, for which the IC50 was > 39.8 µM (inactive).

Regarding `COc1ccc(NC(=O)c2sc(=O)n(Cc3cccc(C(F)(F)F)c3)c2C)cc1OC`, the IC50 is 35.6 µM (inactive).

Consider `Cc1ccc(S(=O)(=O)c2ccc([N+](=O)[O-])o2)cc1`, for which the IC50 is 6.32 µM.

For `O=C(OC12CC3CC(CC(C3)C1)C2)c1ccc(NCc2cc(O)ccc2O)cc1`, the IC50 is 11.6 µM (inactive).

As to `COc1ccc2c(c1)/C(=C/c1cnc[nH]1)C(=O)N2`, the IC50 was 12.7 µM (inactive).

Consider `O=C(Nc1nnc(-c2cccs2)o1)c1cc(-c2ccccc2)nc2ccccc12`, for which the concentration for half-maximal inhibition (IC50) is 3.45 µM.

Regarding `C[C@H]1CCC/C=C/[C@@H]2C[C@H](O)C[C@H]2[C@H](O)[C@H](S(=O)c2ccc(O)cc2)CC(=O)O1` (stereo partly specified), the concentration for half-maximal inhibition (IC50) was 3.52 µM.

Regarding `COc1ccc(C(=O)c2c(C(F)(F)F)oc3c2C(=O)c2ccccc2C3=O)cc1OC`, the IC50 was 1.68 µM.

As for `O=C(NCc1cccnc1)/C(=C\c1ccc(-c2ccc(Cl)c(Cl)c2)o1)S(=O)(=O)c1ccccc1`, the half-inhibitory concentration (IC50) was 7.96 µM.

With `COc1cc2c(OC(C)=O)c3c(c(-c4ccc5c(c4)OCO5)c2cc1OC)C(=O)OC3`, the IC50 was 3.48 µM.

For the compound `O=NN(CC(=O)NNc1ccccc1)CC(=O)NNc1ccccc1`, the IC50 is 23.2 µM (inactive).

As for `O=[N+]([O-])c1ccc(O)c2ncccc12`, the IC50 was 6.36 µM.

For the compound `NC1=C(Br)C(=O)c2ncccc2C1=O`, the IC50 was 2.51 µM.

For the compound `Oc1[nH]c2ccc(Br)cc2c1N=NC(=S)N1CCOCC1`, the IC50 was > 13.3 µM (inactive).

In the case of `O=C(CSc1nnnn1-c1ccc(O)cc1)Nc1ccc(N2CCOCC2)c(Cl)c1`, the IC50 is 4.47 µM.

For the compound `Cc1ccc([C@@H]2CC=C(C(=O)O)[C@H](c3ccc(C(C)(C)C)cc3)N2S(=O)(=O)c2ccc(C)cc2)cc1`, the IC50 is 7.47 µM.

On to `CCC(C)Nc1nc(-c2ccccn2)nc2ccccc12` (stereo unspecified), for which the IC50 is 3.93 µM.

`NS(=O)(=O)c1ccc(CCNc2nn3c(-c4cccc(OC(F)(F)F)c4)cnc3s2)cc1`: the half-inhibitory concentration (IC50) is 4.66 µM.

For `O=C(C1CC1)N1CCc2cc(Br)cc(S(=O)(=O)N3CCN(c4ccccn4)CC3)c21`, the IC50 was > 39.8 µM (inactive).

`COc1ccc2c(CC(=O)Nc3ncc(C)s3)coc2c1`: the IC50 was > 39.8 µM (inactive).

Turning to `Oc1[nH]c2ccccc2c1N=NC(=S)N1CCOCC1`, the IC50 is > 39.9 µM (inactive).

For the compound `O=C(O)CC1(CC(=O)Nc2cc(C(F)(F)F)cc(C(F)(F)F)c2)CCCCC1`, the IC50 was 14.1 µM (inactive).

As for `CC(C)c1cc2c(c(O)c1O)[C@@]13CCCC(C)(C)C1CC2OC3=O` (stereo partly specified), the IC50 is > 39.9 µM (inactive).

For the compound `CC(C)c1ccc(C(c2c(O)c3ccccc3oc2=O)c2c(O)c3ccccc3oc2=O)cc1`, the IC50 is 10.3 µM (inactive).

Regarding `CC(=O)c1c(O)cc(O)c(C(C)=O)c1O`, the 50% inhibitory concentration (IC50) is 4.56 µM.

`CCOC(=O)N1CCN(C(=O)c2ccc(S(=O)(=O)Nc3ccc(C)cc3)cc2)CC1`: the IC50 is 8.62 µM.

As for `Cc1ccnc(NC(=O)C2CCN(S(=O)(=O)c3c(C)c(C)cc(C)c3C)CC2)c1`, the IC50 is 13.2 µM (inactive).

As to `c1ccc(CNc2ncnc3sccc23)cc1`, the concentration for half-maximal inhibition (IC50) was 4.71 µM.

Take `CCOP(=O)(CCP(=O)(OCC)OCC)OCC.C[CH2][Sn]([Cl])([Cl])[CH2]C`: the IC50 is 10.9 µM (inactive).

On to `CN(C)c1ccc(/C=C/c2cc[n+](C)c3ccccc23)cc1`, for which the concentration for half-maximal inhibition (IC50) was 6.66 µM.

Consider `O=C(COc1cccc2ccccc12)Nc1ccc(Cl)cc1C(=O)O`, for which the concentration for half-maximal inhibition (IC50) was 4.04 µM.

On to `CCC1(OC(=O)CN)C(=O)OCc2c1cc1n(c2=O)Cc2cc3ccccc3nc2-1` (stereo unspecified), for which the IC50 was 1.31 µM.

With `O=C(CSc1nnnn1-c1ccc2c(c1)OCCO2)Nc1nc2c(s1)CCCC2`, the IC50 was > 39.8 µM (inactive).

With `CC(C)c1ccc(/C=C(\c2nc3ccccc3[nH]2)S(=O)(=O)c2ccccc2)cc1`, the IC50 was 13.2 µM (inactive).

As to `C=CC[n+]1c(-c2ccc(Cl)cc2Cl)csc1Nc1ccc(NC(C)=O)cc1`, the IC50 is 2.75 µM.

As to `Cc1cnc(NC(=O)C2CC(=O)N(c3cccc(Cl)c3)C2)s1` (stereo unspecified), the IC50 is 1.05 µM.

As for `FC(F)Sc1ccc(NC(=S)N2CCN(c3ccccn3)CC2)cc1`, the concentration for half-maximal inhibition (IC50) is 4.15 µM.

As to `Cc1cnc(NC(=O)Cc2ccc(Br)cc2)s1`, the IC50 was > 39.9 µM (inactive).

For `CC(=O)N1c2ccc(S(=O)(=O)N3CCC(C(=O)Nc4cccc(Cl)c4)CC3)cc2CC1C` (stereo unspecified), the IC50 is 6.45 µM.

Turning to `COc1cnc(-c2ccccn2)nc1Sc1ccccc1Cl`, the 50% inhibitory concentration (IC50) was 4.92 µM.

Turning to `CC(=O)Nc1ccc(Sc2ccc([N+](=O)[O-])o2)cc1`, the IC50 was 18.3 µM (inactive).

In the case of `O=C1N/C(=C\c2ccc(O)cc2)C(O)=C1C=NCc1ccccc1`, the IC50 is > 39.8 µM (inactive).

Regarding `CC(C)(C)C(=O)Nc1cc2nn(-c3ccccc3)nc2cc1Cl`, the half-inhibitory concentration (IC50) was 0.00479 µM.

Take `CCCCCc1c(-c2ccc(OC)c(OC)c2)ncn1CCc1ccccc1OC`: the half-maximal inhibitory concentration (IC50) was 7.74 µM.

As to `Cc1ccsc1C(=O)OCC(=O)c1cc(C)n(CC2CCCO2)c1C` (stereo unspecified), the half-maximal inhibitory concentration (IC50) was 0.0525 µM.

For the compound `CCc1cccc2sc(N3CCN(C(=O)c4ccc([N+](=O)[O-])o4)CC3)nc12`, the IC50 is > 13.3 µM (inactive).

Regarding `CCC(=O)NC(c1cccs1)c1cc([N+](=O)[O-])c2cccnc2c1O` (stereo unspecified), the IC50 is 3.89 µM.

As to `COc1cc2c(oc(=O)c3cc(C)cc(OC)c32)c2c(C3OC(C)C(O)C(C)(O)C3O)ccc(O)c12` (stereo unspecified), the IC50 was 7.6 µM.

Take `COCCn1c(C)cc(C(=O)COc2ccc(C)nc2[N+](=O)[O-])c1C`: the IC50 is 1.46 µM.

As to `COCCCNC(=S)N1CCN(c2nc(-c3ccc(Cl)cc3)cs2)CC1`, the IC50 is 10.6 µM (inactive).

In the case of `CC(C)(C)NCC(=Cc1ccccc1)C(=O)c1ccccc1`, the half-inhibitory concentration (IC50) was 7.33 µM.

Regarding `C=C1C(=O)OC2CC(C)C3C=CC(=O)C3(C)C(O)C12` (stereo unspecified), the IC50 was 10.5 µM (inactive).

For the compound `CCC1(C)Cc2c(sc3[nH]c(=S)n(Cc4ccccc4)c(=O)c23)CO1` (stereo unspecified), the IC50 is 12.1 µM (inactive).

For `CCCCCCCCn1c(=O)c(C(=O)OC)c(N)c2ccccc21`, the 50% inhibitory concentration (IC50) is 3.64 µM.

Turning to `CN(CC(=O)Nc1ccccc1Cl)C(=O)c1cccc(S(=O)(=O)N2CCN(c3ccc(F)cc3)CC2)c1`, the half-maximal inhibitory concentration (IC50) was 4.59 µM.

Consider `Cc1nc(NC(=O)c2c(-c3ccccc3Cl)noc2C)sc1C`, for which the IC50 was > 39.8 µM (inactive).

In the case of `Nc1nc(-c2ccccn2)nc(N)c1Cc1c(F)cccc1Cl`, the IC50 is 2.69 µM.

In the case of `O=c1c(Cl)c(N2CCN(c3ccc(F)cc3)CC2)cnn1C12CC3CC(CC(C3)C1)C2`, the IC50 is 38.2 µM (inactive).

For the compound `COc1ccc([C@@H]2C[C@H]3[C@@H](CN2S(=O)(=O)c2ccccc2)C(=O)C[C@@H](c2cccc(Cl)c2)N3S(=O)(=O)c2ccc(C)cc2)cc1`, the IC50 was 4.51 µM.

For the compound `COc1ccccc1C(=O)Nc1nc2ccccc2[nH]1`, the IC50 is 5.03 µM.

One may read the IC50 as the point on the concentration scale where inhibition reaches its midpoint.

The values above are taken from PubChem BioAssay AID624395 (The Scripps Research Institute Molecular Screening Center, 2012).
